Several values for one entry are separate records, joined by “and”; a condition that tells them apart may be missing. Equal entries are not always repeated. Entries after “also recorded” stand apart in the source; their conditions may differ. Where two headings read alike, the source gives them in different places.
How the values were obtained:
MOLM-14 cells = test: Quantitative multiplexed (TMT) proteomics of compound-treated cells; type: cell-based, Homo sapiens; details: 200 nM, 24 h
Method: For proteomic study of the cellular protein profile following BTK degradation, MOLM-14 cells were treated in duplicate with 200 nM of RC-1, RNC-1, IRC-1, or RC-1-Me for 24 h, and then the cells were collected and processed for proteomics analysis (Sanford Burnham Prebys Medical Discovery Institute, La Jolla, California).
For cell lysis and protein digestion, cells were lysed with vigorous shaking (20 Hz for 10 min at room temperature by Retsch MM301 instrument) in 0.5 mL of lysis buffer (8 M urea, 50 mM ammonium bicarbonate (ABC); plus Benzonase 24U/100 ml), and extracted proteins were centrifuged at 14,000 × g for 10 min to remove cellular debris. Supernatant protein concentration was determined using a bicinchoninic acid (BCA) protein assay. Following quantification, the proteins were digested in solution. First, protein disulfide bonds were reduced with 5 mM tris(2-carboxyethyl)phosphine (TCEP) at 30 °C for 60 min, alkylated (carbamidomethylated) with 15 mM iodoacetamide (IAA) in the dark at room temperature for 30 min. Urea was then diluted to 1 M urea using 50 mM ammonium bicarbonate, and proteins were subjected to overnight digestion with mass spec grade Trypsin/Lys-C mix. Following digestion, samples were acidified with formic acid (FA) and subsequently desalted using Waters Sep-Pak C18. Cartridges were sequentially conditioned with 100% acetonitrile (ACN) and 0.1% FA, samples were then loaded, washed with 0.1% FA, and peptides eluted with 60% ACN, 0.1% FA. Finally, the organic solvent was removed in a SpeedVac concentrator prior to LC-MS/MS analysis.
Prior to TMT labeling, sample peptide amount was quantified using a NanoDrop^TM spectrophotometer (ThermoFisher). Samples were labeled according to the table schematic shown below using our TMT protocol. Briefly, a normalized amount of peptides sample was resuspended in 200 mM HEPES pH 8, and then labeled with one of the TMT10-plex reagents for 1 h at room temperature. TMT labels/channels were as follows:
Reactions were quenched with 5% hydroxylamine solution. The 10 samples were then combined, dried down in a SpeedVac system, resuspended in 0.1% FA, and desalted as described above. After desalting, the organic solvent was removed in a SpeedVac concentrator.
Dried samples were reconstituted in 20 mM ammonium formate pH ~10, and fractionated by high pH reverse phase using a Waters Acquity CSH C18 2.1-µm 1 × 150 mm column mounted on an M-Class Ultra Performance Liquid Chromatography (UPLC) system (Waters corp., Milford, MA). […] A total of 36 fractions were collected and pooled in a non-contiguous manner into 18 total fractions: 1 + 19, 2 + 20, 3 + 21, 4 + 22, 5 + 23, 6 + 24, 7 + 25, 8 + 26, 9 + 27, 10 + 28, 11 + 29, 12 + 30, 13 + 31, 14 + 32, 15 + 33, 16 + 34, 17 + 35, and 18 + 36. Pooled fractions were dried to completeness in a SpeedVac concentrator.
Dried fractions were reconstituted with 2% ACN-0.1% FA and analyzed by LC-MS/MS using a nanoACQUITY system (Waters) coupled to an Orbitrap Fusion Lumos mass spectrometer (Thermo Fisher Scientific). […] The mass spectrometer was operated in positive data-dependent acquisition mode. MS1 spectra were measured in the Orbitrap with a resolution of 60,000 (AGC target: 4e5; maximum injection time: 50 ms; mass range: from 350 to 1500 m/z). The instrument was set to run in top speed mode with 3 s cycles for the survey and the MS/MS scans. After a survey scan, tandem MS was performed in the Ion Routing Multipole HCD-Cell on the most abundant precursors by isolating them in the quadrupole (Isolation window: 0.7 m/z; charge state: +2–7; collision energy: 35%). […] The dynamic exclusion was set to 20 s with a 10-ppm mass tolerance around the precursor and its isotopes.
For data analysis, all mass spectra were analyzed with MaxQuant software version 1.5.5.1. MS/MS spectra were searched against the Homo sapiens Uniprot protein sequence database (version January 2018) and GPM cRAP sequences (commonly known protein contaminants). […]

BTK-NanoLuc fusion = biological target: T1, BTK-NanoLuc fusion (Homo sapiens, UniProt Q06187); test: NanoBRET BTK in-cell target engagement assay; type: cell-based; details: for K′P,D (relative intracellular accumulation coefficient): Kd (BTK)/IC50,TE (BTK); for intracellular accumulation of RC-1 relative to the compound: from K′P,D values, BTK (Table 1)
T1 construct: host or cells: HEK 293T/17
T1 sequence (Q06187 whole entry, the tested form may be a part): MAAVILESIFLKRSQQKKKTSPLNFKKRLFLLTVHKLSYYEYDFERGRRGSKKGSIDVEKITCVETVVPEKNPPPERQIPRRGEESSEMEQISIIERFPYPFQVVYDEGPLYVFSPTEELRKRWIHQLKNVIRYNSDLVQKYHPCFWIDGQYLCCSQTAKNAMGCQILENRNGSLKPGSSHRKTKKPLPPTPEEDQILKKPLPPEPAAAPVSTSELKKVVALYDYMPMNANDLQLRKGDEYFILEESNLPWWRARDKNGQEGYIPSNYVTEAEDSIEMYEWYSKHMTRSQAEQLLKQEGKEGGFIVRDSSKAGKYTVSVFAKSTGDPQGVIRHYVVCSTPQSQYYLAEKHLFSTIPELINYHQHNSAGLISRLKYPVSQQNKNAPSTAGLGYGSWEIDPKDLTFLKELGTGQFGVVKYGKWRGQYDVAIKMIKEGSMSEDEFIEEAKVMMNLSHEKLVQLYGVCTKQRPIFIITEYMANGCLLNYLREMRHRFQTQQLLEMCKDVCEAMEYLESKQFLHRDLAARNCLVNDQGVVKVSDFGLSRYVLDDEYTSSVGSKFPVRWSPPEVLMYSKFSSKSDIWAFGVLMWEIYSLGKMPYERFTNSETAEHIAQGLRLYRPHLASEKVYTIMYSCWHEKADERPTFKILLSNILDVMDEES
How it was run: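 Tracer-displacement IC50 derived from background-corrected BRET ratio (450 nm donor, 610 nm acceptor) in live HEK293/T17 cells transfected with BTK-NanoLuc. Cells were exposed for 2 h at 37 °C to 1.0 µM tracer plus 5-fold serial dilutions of compound from 10 µM.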

Rec-1 = test: IC50 in MCL cell lines (Supplementary Table 2), Rec-1; details: for IC50: Rec-1, triplicates; for Cell Viability (%): Rec-1 cells, replicate wells
[1] = Figure 3c, 1.00E-05 M, triplicates
[2] = Figure 3c, 1.60E-08 M, triplicates
[3] = Figure 3c, 2.00E-06 M, triplicates
[4] = Figure 3c, 3.20E-09 M, triplicates
[5] = Figure 3c, 4.00E-07 M, triplicates
[6] = Figure 3c, 8.00E-08 M, triplicates
[7] = HEK-293 cells, BTK tracer 1.0 µM, Table 1 / Fig. 3c, triplicates, read-out: BTK TE IC50,TE
[8] = Figure 3d, 1.00E-05 M, triplicates
[9] = Figure 3d, 1.60E-08 M, triplicates
[10] = Figure 3d, 2.00E-06 M, triplicates
[11] = Figure 3d, 3.20E-09 M, triplicates
[12] = Figure 3d, 8.00E-08 M, triplicates
[13] = experiment of Fig. 3d, read-out: BTK target engagement IC50

Structure (SMILES) | degradation of IMiD-dependent substrates IKZF1, ZFP91, ZNF692 (MOLM-14 cells) | kinases degraded (proteomics) (MOLM-14 cells) | NanoBRET(%) (BTK-NanoLuc fusion; [1]) | NanoBRET(%) (BTK-NanoLuc fusion; [2]) | NanoBRET(%) (BTK-NanoLuc fusion; [3]) | NanoBRET(%) (BTK-NanoLuc fusion; [4]) | NanoBRET(%) (BTK-NanoLuc fusion; [5]) | NanoBRET(%) (BTK-NanoLuc fusion; [6]) | IC50 (BTK-NanoLuc fusion; [7]) | K′P,D (relative intracellular accumulation coefficient) (BTK-NanoLuc fusion) | intracellular accumulation of RC-1 relative to the compound (BTK-NanoLuc fusion) | IC50 (Rec-1) | Cell Viability (%) (Rec-1; 1.25E-06 M) | Cell Viability (%) (Rec-1; 1.56E-07 M) | Cell Viability (%) (Rec-1; 2.50E-06 M) | Cell Viability (%) (Rec-1; 3.13E-07 M) | Cell Viability (%) (Rec-1; 5.00E-06 M) | Cell Viability (%) (Rec-1; 6.25E-07 M) | Cell Viability (%) (Rec-1; 7.81E-08 M) | NanoBRET(%) (BTK-NanoLuc fusion; [8]) | also measured
CN(CC=CC(=O)N1CCCC(n2nc(-c3ccc(Oc4ccccc4)cc3)c3c(N)ncnc32)C1)CCCNC(=O)CNc1cccc2c1C(=O)N(C1CCC(=O)NC1=O)C2=O (stereo not drawn) [IRC-1] | specifically degraded | 7 | 10.4557% and 9.057% and 9.053% | 96.913% and 93.9025% and 100.93% | 7.89% and 9.51% and 9.23% | 94.8058% and 107.984% and 103.91% | 11.1403% and 9.255% and 17.6554% | 65.3589% and 58.7338% and 70.2106% | 130 nM | 2.3 × 10^−2 | 6 folds | – | – | – | – | – | – | – | – | – | BTK engagement (BTK-NanoLuc fusion; at 400 nM): ~ 100%
CN1C(=O)CCC(N2C(=O)c3cccc(NCC(=O)NCCCN(C)C(C)(C)C=C(C#N)C(=O)N4CCCC(n5nc(-c6ccc(Oc7ccccc7)cc6)c6c(N)ncnc65)C4)c3C2=O)C1=O (stereo not drawn) [RC-1-Me] | – | no degradation is observed | – | – | – | – | – | – | – | – | – | > 5000 nM | 88.9713% and 84.187% and 87.0708% | 102.885% and 100.999% and 103.498% | 85.2061% and 81.3451% and 80.2365% | 100.04% and 97.7301% and 97.0129% | 70.5812% and 67.1387% and 67.0221% | 91.8342% and 92.6769% and 91.2574% | 100.946% and 100.662% and 102.733% | – | –
CN(CCCNC(=O)CNc1cccc2c1C(=O)N(C1CCC(=O)NC1=O)C2=O)C(C)(C)C=C(C#N)C(=O)N1CCC[C@@H](n2nc(-c3ccc(Oc4ccccc4)cc3)c3c(N)ncnc32)C1 (stereo partly drawn) [RC-1] | specifically degraded | only two kinases (BTK and CSK) can be degraded; also recorded: only degrades BTK and CSK | 5.754% and 14.0151% and 10.6773% | 84.9586% and 87.9015% and 82.5703% | 6.342% and 5.596% and 5.448% | 98.0219% and 99.3574% and 101.289% | 9.4506% and 5.015% and 9.59% | 24.5688% and 19.6512% and 23.4022% | 43 nM | 1.5 × 10^−1 | – | 4100 nM | 86.4761% and 87.1335% and 88.5619% | 110.78% and 108.392% and 108.404% | 70.381% and 67.6766% and 67.9066% | 100.052% and 101.66% and 95.2827% | 39.6222% and 42.2011% and 40.0645% | 96.6812% and 94.3055% and 92.2914% | 102.045% and 105.031% and 106.253% | 9.378% and 8.307% and 3.455% | NanoBRET(%) (BTK-NanoLuc fusion; [9]): 87.0885% and 73.1635% and 80.126%; NanoBRET(%) (BTK-NanoLuc fusion; [10]): 4.9185% and 3.718% and 8.9958%; NanoBRET(%) (BTK-NanoLuc fusion; [11]): 95.2579% and 79.7394% and 93.8869%; NanoBRET(%) (BTK-NanoLuc fusion; Figure 3d, 4.00E-07 M, triplicates): 11.2221% and 10.3003% and 9.486%; NanoBRET(%) (BTK-NanoLuc fusion; [12]): 50.6504% and 43.13% and 35.3416%; IC50 (BTK-NanoLuc fusion; HEK-293 cells, BTK tracer 1.0 µM, experiment of Fig. 3f, read-out: BTK target engagement IC50): 33 nM; BTK target engagement (BTK-NanoLuc fusion; at 40 nM): 50%; BTK target engagement (BTK-NanoLuc fusion; at 200 nM): 90%; IC50 (BTK-NanoLuc fusion; [13]): 59 nM
CC(C)(C)C=C(C#N)C(=O)N1CCCC(n2nc(-c3ccc(Oc4ccccc4)cc3)c3c(N)ncnc32)C1 (stereo not drawn) [RC-Ctrl] | – | – | – | – | – | – | – | – | – | 1.5 × 10^−1 | – | > 5000 nM | 84.1542% and 83.3085% and 82.8961% | 92.1928% and 91.3082% and 92.4737% | 79.0591% and 78.7184% and 77.0987% | 90.2055% and 91.6728% and 91.1737% | 67.2403% and 66.8996% and 66.3946% | 86.0757% and 86.1055% and 87.7342% | 88.6576% and 86.9542% and 93.923% | 3.378% and 4.061% and 7.763% | NanoBRET(%) (BTK-NanoLuc fusion; [9]): 68.6994% and 58.5265% and 79.8426%; NanoBRET(%) (BTK-NanoLuc fusion; [10]): 7.973% and 4.415% and 10.8959%; NanoBRET(%) (BTK-NanoLuc fusion; [11]): 72.0977% and 81.5236% and 73.9704%; NanoBRET(%) (BTK-NanoLuc fusion; [12]): 48.5638% and 40.5056% and 47.7559%; IC50 (BTK-NanoLuc fusion; [13]): 47 nM
CN(CCCNC(=O)CNc1cccc2c1C(=O)N(C1CCC(=O)NC1=O)C2=O)CCCC(=O)N1CCCC(n2nc(-c3ccc(Oc4ccccc4)cc3)c3c(N)ncnc32)C1 (stereo not drawn) [RNC-1] | specifically degraded | 7 | 19.811% and 15.5465% and 15.3581% | 97.712% and 94.5586% and 94.4887% | 33.1128% and 33.4469% and 31.5012% | 87.6339% and 98.6398% and 114.053% | 69.4314% and 86.9635% and 77.822% | 100.734% and 107.362% and 104.968% | 1270 nM | 3.7 × 10^−3 | 40 folds | – | – | – | – | – | – | – | – | – | –
